# Data taken from patent US12383528B2, “Cromolyn esters and uses thereof” (The General Hospital Corporation, priority 2018, dated 2025).
# Key:
# [1] = Brain positron emission tomography (PET) imaging study, dynamic PET; assay type: in vivo; conditions: rhesus monkey PET; for order of brain tracer penetration: three 18F-cromolyn analogs compared
# Experimental: Dynamic PET imaging (GE Discovery MI Scanner) in a rhesus monkey was performed with compound 5 (diethyl ester), compound 6 (di-tert-butyl ester), and ^18F-Cromolyn (diacid).
# [2] = Measured log D (lipophilicity); assay type: physicochemical
time of maximum brain uptake [1] [min],washout from brain [1],maximum brain uptake ([1]; at 2 min) [SUV],brain uptake during washout ([1]; at 20 min) [SUV],brain uptake during washout ([1]; at 60 min) [SUV],order of brain tracer penetration [1],logD [2],SMILES,regional brain uptake [1]
2,washout was slow,2.3,2,1.5,diethyl ester>di-tert-butyl ester>diacid,2.5,CCOC(=O)c1cc(=O)c2c(OCC([18F])COc3cccc4oc(C(=O)OCC)cc(=O)c34)cccc2o1 [Compound 5],"uptake in all regions of the brain with the highest in putamen, grey matter and cerebellum followed by caudate, thalamus and white matter"
,,,,,diethyl ester>di-tert-butyl ester>diacid,3.5,CC(C)(C)OC(=O)c1cc(=O)c2c(OCC([18F])COc3cccc4oc(C(=O)OC(C)(C)C)cc(=O)c34)cccc2o1 [Compound 6],
,,,,,diethyl ester>di-tert-butyl ester>diacid,,"O=C(O)c1cc(=O)c2c(OCC([18F])COc3cccc4oc(C(=O)O)cc(=O)c34)cccc2o1 [^18F-Cromolyn (diacid), reference compound]",
